Data on 42 compounds can be found in patent US8546380B2, “Aminodihydrothiazine derivatives” (Shionogi & Co., Ltd., priority 2005, dated 2013).

Read-outs that look alike come from different tables or passages of the source.

The target of data set [1] is recombinant human BACE-1 protein (Homo sapiens (Human), UniProt P56817). Nature of the data set: Measurement of Inhibition of β-Secretase Activity. It is filed as biochemical. Particulars: 3 h at 30° C., pH5.0, read-out: IC50 value. The method, boiled down:
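Recombinant human BACE-1 incubated with compound and Eu-cryptate-labelled biotinylated peptide substrate 3 h at 30° C in 50 mM sodium acetate pH 5.0, 0.008% Triton X-100. Streptavidin-XL665 in KF-containing phosphate buffer pH 7.0 then added, 1 h at 30° C, for time-resolved FRET read-out.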

[2] abbreviates: fluorescence-quenched peptide substrate 18 nM, BACE-1 7.4 nM.
Where [3] appears, read: recombinant human BACE-1 protein.

recombinant human BACE-1 protein, sequence (P56817 46-501): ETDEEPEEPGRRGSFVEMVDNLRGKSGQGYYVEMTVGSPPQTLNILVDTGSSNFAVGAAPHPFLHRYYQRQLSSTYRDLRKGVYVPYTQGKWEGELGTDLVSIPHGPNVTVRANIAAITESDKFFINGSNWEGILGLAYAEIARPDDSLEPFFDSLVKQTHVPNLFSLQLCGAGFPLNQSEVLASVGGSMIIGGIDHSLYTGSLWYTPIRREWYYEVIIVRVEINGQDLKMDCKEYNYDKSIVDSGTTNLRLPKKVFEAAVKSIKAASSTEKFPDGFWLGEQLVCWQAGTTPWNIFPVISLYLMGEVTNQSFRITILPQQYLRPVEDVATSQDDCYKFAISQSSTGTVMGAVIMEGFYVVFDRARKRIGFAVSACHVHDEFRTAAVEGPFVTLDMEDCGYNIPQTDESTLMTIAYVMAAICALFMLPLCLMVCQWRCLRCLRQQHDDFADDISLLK

For the compound `Cc1cc(C(=O)Nc2cccc(C3(C)CCSC(N)=N3)c2)n(C)n1` (stereo not shown) [Compound 130], the melting point is 128 to 131 °C. For the same compound, the IC50 in data set [1] (setting [2]) is below 100 µM.
Taken in the same sequence, the figures for `CC1(c2ccc3c(c2)CCO3)CCSC(N)=N1` (stereo not shown) [Compound 1084] were 146 to 149 °C and below 100 µM.
Compound `CC1(c2cccc(NC(=O)c3ncc(Cl)cc3Cl)c2)CCSC(N)=N1.Cl` (stereo not shown) [Compound 127] had a melting point of 280 to 285 °C. Moreover, in data set [1] (setting [3]), the IC50 stood at 0.054 µM.
`CCC1(c2cccc(NC(=O)c3ccc(Cl)cn3)c2)CCSC(N)=N1` (stereo not shown) [Compound 380] registered a melting point of 181 to 182 °C. Also, the IC50 in data set [1] (setting [2]) is below 100 µM.
The like results for `COc1ccc(CCCOc2cccc(C3(C)CCSC(N)=N3)c2)cc1.Cl` (stereo not shown) [Compound 936] were, in that order, 169 to 170 °C and below 100 µM.
Taken in the same sequence, the figures for `CC1(c2cccc(OCCCc3cccnc3)c2)CCSC(N)=N1` (stereo not shown) [Compound 282] were 146 to 147 °C and below 100 µM.
`CC1(c2cc(NC(=O)c3ncc(Cl)cn3)ccc2F)CCSC(N)=N1` (stereo not shown) [Compound 204] came in with a melting point of 205 to 208 °C. In addition, in data set [1] (setting [2]), the IC50 is below 100 µM.
The like results for `CC1(c2ccc(C(=O)Nc3ccc(Cl)cn3)s2)CCSC(N)=N1` (stereo not shown) [Compound 500] were, in that order, 181 to 184 °C and below 100 µM.
Take `COc1cc(NC(=O)c2ccc(Cl)cn2)cc(C2(C)CCSC(N)=N2)c1.Cl` (stereo not shown) [Compound 1035]: the melting point is 247 to 251 °C (dec.). Further, in data set [1] (setting [3]), the IC50 stood at 0.174 µM.
With `CC1(c2cccc(OCCOc3ccccc3)c2)CCSC(N)=N1.Cl` (stereo not shown) [Compound 57], the melting point lay in the range of 197 to 198 °C. The IC50 in data set [1] (setting [2]) is below 100 µM.
In the case of `COCc1cc(NC(=O)c2ccc(C)cc2)cc(C2(C)CCSC(N)=N2)c1` (stereo not shown) [Compound 465], the melting point stood at 194.6 °C. Besides, the IC50 in data set [1] (setting [3]) came out at 3.24 µM.
The like results for `CC1(c2cccc(NC(=O)c3ccc(C(F)(F)F)cn3)c2)CCSC(N)=N1.Cl` (stereo not shown) [Compound 1244] were, in that order, 268 to 288 °C and 0.13 µM.
With `COCc1cc(NC(=O)c2ccc(Br)cc2)cc(C2(C)CCSC(N)=N2)c1.Cl` (stereo not shown) [Compound 1197], the melting point is 250 to 255 °C (dec.). In addition, the half-inhibitory concentration (IC50) in data set [1] (setting [3]) amounted to 0.912 µM.
For the compound `CC1(c2ccccc2)CC(c2ccccc2)SC(N)=N1` (stereo not shown) [Compound 835], the melting point was in the range of 139 to 140 °C. Besides, the IC50 in data set [1] (setting [2]) is below 100 µM.
The like results for `CC(C)c1ccc(C(=O)Nc2cccc(C3(C)CCSC(N)=N3)c2)nc1` (stereo not shown) [Compound 1005] were, in that order, 191 to 193 °C and below 100 µM.
The like results for `Cc1ccc(C2(C)CCSC(N)=N2)cc1` (stereo not shown) [Compound 85] were, in that order, 147 to 148 °C and below 100 µM.
For `Cc1cc(C(=O)Nc2cc(Br)cc(C3(C)CCSC(N)=N3)c2)c(C)o1` (stereo not shown) [Compound 731], the melting point lay in the range of 91 to 94 °C. For the same compound, the IC50 in data set [1] (setting [3]) stood at 0.278 µM.
As for `CC1(c2ccc(F)cc2)CCCSC(N)=N1.Cl` (stereo not shown) [Compound 129], the melting point fell in the range of 219 to 222 °C. The IC50 in data set [1] (setting [2]) is below 100 µM.
The compound `CC1(c2cc(NC(=O)c3ccc(C(F)(F)F)cn3)ccc2F)CCSC(N)=N1` (stereo not shown) [Compound 396] registered a melting point of 211 to 213 °C. The IC50 in data set [1] (setting [2]) was below 100 µM.
In turn, `CC1(c2cc(NC(=O)c3ccc(C(F)(F)F)cn3)cc(C(F)(F)F)c2)CCSC(N)=N1` (stereo not shown) [Compound 897] gave a melting point of 212 to 214 °C. Further, the IC50 in data set [1] (setting [3]) turned out to be 0.816 µM.
The like results for `CC1(c2cccc(NC(=O)c3ccc(Cl)cc3Cl)c2)CCSC(N)=N1` (stereo not shown) [Compound 625] were, in that order, 107 to 109 °C and 1.29 µM.
The like results for `CC1(c2cc(Br)cc(NC(=O)c3ccc(Cl)cn3)c2)CCSC(N)=N1.Cl` (stereo not shown) [Compound 165] were, in that order, 246 to 248 °C and 0.0394 µM.
Take `COc1ccc(C(=O)NCc2cccc(C3(C)CCSC(N)=N3)c2)cc1.Cl` (stereo not shown) [Compound 452]: the melting point is 132 to 134 °C. For the same compound, in data set [1] (setting [2]), the IC50 is below 100 µM.
The like results for `CC1(c2ccc(Cl)cc2)CCSC(N)=N1` (stereo not shown) [Compound 1062] were, in that order, 136 to 137 °C and below 100 µM.
In the case of `CC1(c2cccc(OCCCc3ccccc3)c2)CCSC(N)=N1` (stereo not shown) [Compound 1010], the melting point lay within 90 to 91 °C. Also, the IC50 in data set [1] (setting [3]) was 2.8 µM.
Compound `CC1(c2cc(NC(=O)c3ccc(Cl)cn3)cc(C(=O)Nc3ccccc3)c2)CCSC(N)=N1` (stereo not shown) [Compound 1217] came in with a melting point of 263 to 266 °C. Moreover, the IC50 in data set [1] (setting [2]) was below 100 µM.
Taken in the same sequence, the figures for `CC1(c2ccc3ccccc3c2)CCNC(N)=N1.O=S(=O)(O)O` (stereo not shown) [Compound 125] were above 300 °C and below 100 µM.
The compound `CC1(c2cc(Br)cc(NC(=O)c3nc4ccccc4s3)c2)CCSC(N)=N1.Cl` (stereo not shown) [Compound 570] gave a melting point of 186 to 187 °C. Further, in data set [1] (setting [3]), the IC50 was found to be 0.149 µM.
Regarding `CC1(c2cc(N)cc(Br)c2)CCSC(N)=N1.Cl.Cl` (stereo not shown) [Compound 588], the melting point was in the range of 155 to 156 °C. In addition, in data set [1] (setting [2]), the IC50 was below 100 µM.
Taken in the same sequence, the figures for `CC1(c2cccc(/C=C/C(=O)Nc3ccccc3)c2)CCSC(N)=N1` (stereo not shown) [Compound 1109] were 134 to 140 °C and below 100 µM.
Taken in the same sequence, the figures for `CC1(c2ccc(F)c(C(=O)Nc3ccc(Cl)cn3)c2)CCSC(N)=N1` (stereo not shown) [Compound 1125] were 195 to 198 °C and below 100 µM.
`CC1(c2cc(NC(=O)c3ccc(Cl)cn3)cc(C(F)(F)F)c2)CCSC(N)=N1` (stereo not shown) [Compound 964]: the melting point was in the range of 185 to 187 °C. Moreover, the IC50 in data set [1] (setting [3]) amounted to 0.264 µM.
Take `CC1(c2cccc(COc3ccc(Cl)cc3)c2)CCSC(N)=N1` (stereo not shown) [Compound 1028]: the melting point was in the range of 105 to 106 °C. Besides, the half-inhibitory concentration (IC50) in data set [1] (setting [2]) was below 100 µM.
`CC1(c2cccc(NC(=O)c3ccc(Cl)cn3)c2)CCSC(N)=N1.Cl` (stereo not shown) [Compound 793]: the melting point was 269 °C (dec.). For the same compound, the IC50 in data set [1] (setting [3]) is 0.061 µM.
In turn, `CCOC(=O)CCc1cccc(C2(C)CCSC(N)=N2)c1.Cl` (stereo not shown) [Compound 720] returned a melting point of 133 to 138 °C. Further, the half-maximal inhibitory concentration (IC50) in data set [1] (setting [2]) is below 100 µM.
The like results for `CC1(c2cccc(NCc3ccncc3)c2)CCSC(N)=N1` (stereo not shown) [Compound 728] were, in that order, 179 to 182 °C and below 100 µM.
The like results for `CC1(c2cccc(/C=N/OCc3ccncc3)c2)CCSC(N)=N1` (stereo not shown) [Compound 456] were, in that order, 147 to 149 °C and below 100 µM.
The like results for `CC1(c2ccc(Oc3ccc(F)cc3)cc2)CCSC(N)=N1` (stereo not shown) [Compound 267] were, in that order, 114 to 115 °C and below 100 µM.
Consider `CO/N=C/c1cccc(C2(C)CCSC(N)=N2)c1` (stereo not shown) [Compound 804], for which the melting point lay in the range of 135 to 136 °C. Further, in data set [1] (setting [2]), the IC50 was below 100 µM.
As to `CC1(c2ccc(C(=O)NCc3ccccc3)s2)CCSC(N)=N1` (stereo not shown) [Compound 1124], the melting point fell in the range of 169 to 172 °C. The IC50 in data set [1] (setting [2]) was below 100 µM.
For the compound `CC1(c2ccc3c(c2)OCCO3)CCNC(N)=N1.Cl` (stereo not shown), the melting point fell in the range of 198 to 201 °C.
The same measure, in the same setting: as for `CC1(c2ccc(OC(F)(F)F)cc2)CCSC(N)=N1` (stereo not shown) [Compound 968], the figure is 107 to 109 °C.

What is called IC50 is the concentration that inhibits the measured activity by half. The term melting point denotes the temperature of the solid-liquid transition.
